{
  "source": "paper PMC3984052",
  "about": "(Bioorganic & medicinal chemistry, 2014)",
  "data": [
    {"tested_on": "PrP^C in N2a-cl3 neuroblastoma cells that overexpress PrP^C", "format": "cell-based, mouse", "details": "values not given", "values": [
      {"smiles": "COc1cc(OC)cc(C(=O)Nc2ccc(I)cn2)c1", "note": "[IND85671]", "Potency (EC50 by ELISA) in N2a-cl3 cells, in words": "potent"},
      {"smiles": "NC(=O)c1ccccc1NC(=O)c1cccnc1N1CCCCC1", "note": "[IND87406]", "Potency (EC50 by ELISA) in N2a-cl3 cells, in words": "potent"},
      {"smiles": "CCOC(=O)c1[nH]c2c(c1C)C(=O)CC(c1ccco1)C2", "note": "(stereo not drawn) [IND87564]", "Potency (EC50 by ELISA) in N2a-cl3 cells, in words": "potent"}
    ]}
  ]
}
